Reference: ChEMBL document CHEMBL5360672, “Identification of Novel Dual-Target Estrogen Receptor α Degraders with Tubulin Inhibitory Activity for the Treatment of Endocrine-Resistant Breast Cancer” (J Med Chem, 2023)
pIC50: −log10 of the molar value.

Columns and labels:
[1] = molecular target: T1, Estrogen receptor (Homo sapiens) (UniProt P03372); test: Binding affinity to human ERalpha assessed as relative binding affinity incubated under vibration for 1 min followed by 2 hrs incubation under dark condition by fluorescence polarization assay relative to estradiol; settings: time 121.0 min
T1 sequence (whole entry): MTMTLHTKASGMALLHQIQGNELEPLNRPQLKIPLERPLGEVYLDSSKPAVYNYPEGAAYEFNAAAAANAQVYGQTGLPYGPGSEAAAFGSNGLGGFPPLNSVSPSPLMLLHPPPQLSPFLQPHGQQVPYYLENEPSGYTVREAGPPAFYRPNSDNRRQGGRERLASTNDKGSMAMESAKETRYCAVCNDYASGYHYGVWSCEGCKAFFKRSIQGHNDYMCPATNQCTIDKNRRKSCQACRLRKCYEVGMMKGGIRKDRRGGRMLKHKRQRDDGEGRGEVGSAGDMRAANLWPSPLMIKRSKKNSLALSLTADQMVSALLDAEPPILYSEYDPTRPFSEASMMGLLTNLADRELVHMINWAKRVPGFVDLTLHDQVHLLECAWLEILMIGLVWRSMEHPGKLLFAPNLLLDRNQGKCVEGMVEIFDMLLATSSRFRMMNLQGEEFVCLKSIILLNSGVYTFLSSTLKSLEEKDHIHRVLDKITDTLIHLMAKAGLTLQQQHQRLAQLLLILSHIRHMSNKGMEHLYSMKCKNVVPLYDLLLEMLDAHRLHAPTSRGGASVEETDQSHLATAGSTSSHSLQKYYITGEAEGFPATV

[2] = molecular target: Estrogen receptor beta (Homo sapiens) (UniProt Q92731); test: Binding affinity to human ERbeta assessed as relative binding affinity incubated under vibration for 1 min followed by 2 hrs incubation under dark condition by fluorescence polarization assay relative to estradiol; settings: time 121.0 min
[3] = organism: Homo sapiens; test: Selectivity ratio of relative binding affinity for human ERalpha to relative binding affinity to human ERbeta
[4] = tested on: MCF7; test: Antiproliferative activity against ERalpha positive human MCF7 cells assessed as inhibition of cell proliferation incubated for 72 hrs by CCK8 assay; assay type: functional, cell-based; settings: MCF7, 72 h
[5] = tested on: T47D; test: Antiproliferative activity against ERalpha positive human T47D cells assessed as inhibition of cell proliferation incubated for 72 hrs by CCK8 assay; assay type: functional, cell-based
[6] = Cytotoxicity against human MCF-10A cells assessed as inhibition of cell proliferation incubated for 72 hrs by CCK8 assay; assay type: toxicity, cell-based
[7] = Selectivity index, ratio of IC50 for cytotoxicity against human MCF-10A cells to IC50 for antiproliferative activity against human MCF7 cells; assay type: toxicity, cell-based; settings: MCF-10A cells and MCF7 cells, read-out: Ratio IC50

Chain of Estrogen receptor beta (Homo sapiens) (Q92731 whole entry): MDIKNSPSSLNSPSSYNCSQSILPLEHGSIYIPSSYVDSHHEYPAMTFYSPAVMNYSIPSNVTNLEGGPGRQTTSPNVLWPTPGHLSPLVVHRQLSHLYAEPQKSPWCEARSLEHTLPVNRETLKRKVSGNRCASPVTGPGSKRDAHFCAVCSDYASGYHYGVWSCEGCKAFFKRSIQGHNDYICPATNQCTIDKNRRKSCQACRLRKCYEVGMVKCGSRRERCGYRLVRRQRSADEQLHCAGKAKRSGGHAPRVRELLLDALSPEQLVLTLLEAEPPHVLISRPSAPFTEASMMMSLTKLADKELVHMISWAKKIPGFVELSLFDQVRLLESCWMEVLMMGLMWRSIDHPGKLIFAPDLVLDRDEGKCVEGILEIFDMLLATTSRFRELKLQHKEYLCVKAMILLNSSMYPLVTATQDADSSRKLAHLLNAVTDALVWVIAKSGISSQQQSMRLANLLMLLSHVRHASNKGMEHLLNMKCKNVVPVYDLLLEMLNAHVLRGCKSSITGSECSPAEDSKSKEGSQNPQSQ

| Structure (SMILES) | RBA [1] [%] | RBA [2] [%] | Selectivity ratio [3] | pIC50 [4] | pIC50 [5] | IC50 at 72 h [6] [µM] | selectivity ratio [7] |
| --- | --- | --- | --- | --- | --- | --- | --- |
| Cc1ccc(OS(=O)(=O)C2CC3OC2C(c2ccc(NC(=O)CCCCC[Se]C#N)cc2)=C3c2ccc(O)cc2)cc1 (centres undefined) | 3.31 | 2.63 | 1.26 | 5.56 | 5.50 | 41.1 | 15 |
| N#C[Se]CCCCCC(=O)Nc1ccc(C2=C(c3ccc(O)cc3)C3CC(S(=O)(=O)Oc4ccc(Cl)cc4)C2O3)cc1 (centres undefined) | 0.6 | 2.64 | 0.23 | 5.88 | 5.45 | 11.8 | 8.94 |
| N#C[Se]CCCC(=O)Nc1ccc(C2=C(c3ccc(O)cc3)C3CC(S(=O)(=O)Oc4ccccc4)C2O3)cc1 (centres undefined) | 1.05 | 1.7 | 0.62 | 5.69 | 4.74 | 59.9 | 29.7 |
| N#C[Se]CCCCCC(=O)Nc1ccc(C2=C(c3ccc(O)cc3)C3CC(S(=O)(=O)Oc4cccc(C(F)(F)F)c4)C2O3)cc1 (centres undefined) | 0.17 | 0.3 | 0.57 | 6.24 | < 4.51 | 53.6 | 94.1 |
| Cc1cccc(OS(=O)(=O)C2CC3OC2C(c2ccc(NC(=O)CCCCC[Se]C#N)cc2)=C3c2ccc(O)cc2)c1 (centres undefined) | 0.99 | 1.29 | 0.77 | 6.15 | 4.87 | 30.2 | 42.5 |
| N#C[Se]CCCCCC(=O)Nc1ccc(C2=C(c3ccc(O)cc3)C3CC(S(=O)(=O)Oc4ccccc4Cl)C2O3)cc1 (centres undefined) | 8.21 | 1.52 | 5.4 | 6.31 | 5.59 | 10.1 | 20.7 |
| N#C[Se]CCCCCC(=O)Nc1ccc(C2=C(c3ccc(O)cc3)C3CC(S(=O)(=O)Oc4ccccc4C(F)(F)F)C2O3)cc1 (centres undefined) | 23.1 | 5.79 | 10.6 | 6.46 | 5.75 | 12.9 | 36.9 |
| N#C[Se]CCCCCC(=O)Nc1ccc(C2=C(c3ccc(O)cc3)C3CC(S(=O)(=O)Oc4ccc(F)cc4)C2O3)cc1 (centres undefined) | 2.05 | 3.74 | 0.55 | 5.93 | 5.84 | 11.5 | 9.75 |
| N#C[Se]CC(=O)Nc1ccc(C2=C(c3ccc(O)cc3)C3CC(S(=O)(=O)Oc4ccccc4)C2O3)cc1 (centres undefined) | 0.57 | 0.24 | 2.38 | 5.56 | 4.61 | 38.6 | 14 |
| N#C[Se]CCCCCC(=O)Nc1ccc(C2=C(c3ccc(O)cc3)C3CC(S(=O)(=O)Oc4ccc(C(F)(F)F)cc4)C2O3)cc1 (centres undefined) | 4.43 | 1.61 | 2.75 | 5.55 | 5.52 | 16.2 | 5.72 |
| N#C[Se]CCCCCCCC(=O)Nc1ccc(C2=C(c3ccc(O)cc3)C3CC(S(=O)(=O)Oc4ccccc4)C2O3)cc1 (centres undefined) | 0.71 | 2.06 | 0.34 | 5.77 | < 4.51 | 20.5 | 12 |
| COc1ccccc1OS(=O)(=O)C1CC2OC1C(c1ccc(NC(=O)CCCCC[Se]C#N)cc1)=C2c1ccc(O)cc1 (centres undefined) | 16 | 1.29 | 12.4 | 6.31 | 5.74 | 7.37 | 15 |
| COc1cccc(OS(=O)(=O)C2CC3OC2C(c2ccc(NC(=O)CCCCC[Se]C#N)cc2)=C3c2ccc(O)cc2)c1 (centres undefined) | 12.1 | 0.35 | 34.7 | 5.60 | 5.49 | 19.9 | 7.99 |
| N#C[Se]CCCCCC(=O)Nc1ccc(C2=C(c3ccc(O)cc3)C3CC(S(=O)(=O)Oc4cccc(Cl)c4)C2O3)cc1 (centres undefined) | 4.08 | 0.1 | 40.8 | 6.15 | 5.39 | 29.7 | 42.4 |
| COc1ccc(OS(=O)(=O)C2CC3OC2C(c2ccc(NC(=O)CCCCC[Se]C#N)cc2)=C3c2ccc(O)cc2)cc1 (centres undefined) | 0.97 | 0.05 | 19.4 | 5.58 | 5.71 | 13.1 | 4.99 |
| N#C[Se]CCCCCC(=O)Nc1ccc(C2=C(c3ccc(O)cc3)C3CC(S(=O)(=O)Oc4ccc5ccccc5c4)C2O3)cc1 (centres undefined) | 4.51 | 0.23 | 19.6 | 5.52 | < 4.51 | 22.6 | 7.52 |
| Cc1ccccc1OS(=O)(=O)C1CC2OC1C(c1ccc(NC(=O)CCCCC[Se]C#N)cc1)=C2c1ccc(O)cc1 (centres undefined) | 14.1 | 3.12 | 4.53 | 6.21 | 5.65 | 10.2 | 16.5 |
| N#C[Se]CCCCCC(=O)Nc1ccc(C2=C(c3ccc(O)cc3)C3CC(S(=O)(=O)Oc4cccc5ccccc45)C2O3)cc1 (centres undefined) | 15.5 | 9 | 1.72 | 5.61 | 5.77 | 13.9 | 5.72 |
| N#C[Se]CCCCCC(=O)Nc1ccc(C2=C(c3ccc(O)cc3)C3CC(S(=O)(=O)Oc4cccc(O)c4)C2O3)cc1 (centres undefined) | 14.2 | 0.91 | 15.6 | 5.89 | < 4.51 | > 60 | > 46.5 |
| N#C[Se]CCCCCC(=O)Nc1ccc(C2=C(c3ccc(O)cc3)C3CC(S(=O)(=O)Oc4cccc(Br)c4)C2O3)cc1 (centres undefined) | 0.59 | 0.31 | 1.9 | 5.91 | 5.55 | 22.7 | 18.5 |
| N#C[Se]CCCCCC(=O)Nc1ccc(C2=C(c3ccc(O)cc3)C3CC(S(=O)(=O)Oc4ccc(O)cc4)C2O3)cc1 (centres undefined) | 7.83 | 0.73 | 10.7 | 5.82 | 5.30 | 10.4 | 6.94 |
| COc1cc2c(c(OC)c1OC)-c1ccc(OC)c(=O)cc1[C@@H](NC(C)=O)CC2 [COLCHICINE] | – | – | – | 9.00 | 9.55 | – | – |
